# From patent publication US20230292780A1, “LISTERIA INHIBITION BY MANGANESE DEPLETION” (Chr. Hansen A/S, priority 2020, published 2023)
# Where two headings read alike, the source gives them in different places.
# Key:
# [1] = system: S. thermophilus single strain isolated from Fresco 1000NG-10; conditions: second Mn-free CDM, 0 to 0.6 ppm manganese, 30° C.
# Protocol: (§1) CDM for growth of Lactococcus lactis and Listeria innocua was prepared as described in Example 1. As to Streptococcus thermophilus, a second Mn-free CDM supporting it growth was prepared essentially as described by Otto et al. (“The relation between growth rate and electrochemical proton gradient of Streptococcus cremoris.” FEMS Microbiology Letters 16.1 (1983): 69-74) with the following exceptions: All metals were used in the same final concentrations as listed in Table 4, and all amino acids were added to a final concentration of 0.08 g/L except for cysteine, which consisted of a final concentration of 0.5 g/L. Wolfe's vitamin solution was used in which DL-Ca-pantothenate was increased to have a final concentration of 400 mg/L, and urea and NaHCO3 were added to a final concentration of 0.12 and 0.42 g, respectively.
# (§2) The following strains were tested: • 1. L. lactis single strain isolated from Fresco 1000NG-10 (Chr. Hansen A/S, Denmark) • 2. S. thermophilus single strain isolated from Fresco 1000NG-10 (Chr. Hansen A/S, Denmark) • 3. L. innocua BL 86/26
# (§3) All strains were pre-grown to stationary phase cultures from −80° C. glycerol stocks in M17 broth with 1% (w/v) glucose, as standing cultures at 30° C. 1 mL of each culture was then washed twice with and resuspended in manganese-deficient CDM to remove residual manganese. 1 μL of each washed culture was then used to inoculate, in triplicate, a well of a 96-wells plate containing 200 μL CDM supplemented with 1% (w/v) glucose diluted from a 50% (w/v) stock solution dissolved in Milli-Q water, and in which manganese was left out, or added to a final concentration of 0.00006, 0.0006, 0.006, 0.06 or 0.6 mg L-1 manganese. Growth was followed by monitoring the absorbance at 600 nm at 30° C. in a Synergi H1 reader (BioTek, Winooski, VT, USA).
# [2] = system: L. lactis single strain isolated from Fresco 1000NG-10; conditions: CDM, 0 to 0.6 ppm manganese, 30° C.
# Protocol: as §1, §2, §3
# L. innocua BL 86/26 = conditions: CDM, 30° C.
# Protocol: as §1, §2, §3
# [3] = system: L. lactis subsp. cremoris MG1363; conditions: same CDM
# Protocol: (§4) All the components were dissolved in 700 mL Milli-Q water to minimize traces of manganese, and the pH was set to 6.8 with KOH, after which the volume was adjusted to 1 L and filter-sterilized.
# (§5) The following strains were tested: • 1. L. monocytogenes 1: DSM 15675 (obtainable from DSMZ) • 2. L. monocytogenes 2: mhl210 (obtainable from the Copenhagen University from Department of Veterinary and Animal Sciences, Section for Food Safety and Zoonoses) • 3. L. monocytogenes 3: ATCC 13932 (obtainable from ATCC) • 4. L. innocua BL 86/26 • 5. L. lactis subsp. cremoris MG1363 (MoBiTec GmbH, Germany)
# (§6) L. innocua BL 86/26 and L. lactis MG1363 were pre-grown from -80° C. glycerol stocks in M17 broth with 1% (w/v) glucose. The three L. monocytogenes were pre-grown from −80° C. glycerol stocks in BHI. All cultures were incubated overnight as standing cultures at 30° C., resulting in stationary phase cultures. The next day, 1 mL of each culture was washed twice with and resuspended in manganese-deficient CDM to remove residual manganese. 1 μL of each washed culture was then used to inoculate, in triplicate, a well of a 96-wells plate containing 200 μL CDM supplemented with 1% glucose diluted from a 50% (w/v) stock solution dissolved in demineralized water, in which manganese was left out, or added to a final concentration of 0.00006, 0.0006, 0.006, 0.06 or 0.6 mg L^−1 manganese. Growth was followed by monitoring the absorbance at 600 nm at 30° C. in a Synergi H1 reader (BioTek, Winooski, VT, USA). This experiment was repeated twice on separate days to check reproducibility.
# [4] = system: four Listeria spp. strains (L. monocytogenes DSM 15675, mhl210, ATCC 13932; L. innocua BL 86/26); conditions: for growth (absorbance at 600 nm): 30° C.
# Protocol: as §4, §5, §6
smiles,measurement,setting,value
[Mn+2] [manganese],growth on depletion of manganese,[1],minimally inhibited
same,growth on depletion of manganese,[2],minimally inhibited
same,manganese required for growth to occur,L. innocua BL 86/26,more than 0.0006 ppm
same,growth on depletion of manganese,[3],hardly inhibited
same,growth (absorbance at 600 nm),[4]; 0.0006 ppm manganese added to CDM,severely hampered
same,growth (absorbance at 600 nm),[4]; 0.006 ppm manganese added to CDM,some growth defects
same,growth (absorbance at 600 nm),[4]; 0.06 ppm manganese added to CDM,no growth defect
same,growth (absorbance at 600 nm),[4]; 0.6 ppm manganese added to CDM,no growth defect
same,manganese concentration below which inhibition of Listeria can be seen,[4]; CDM,below 0.006 ppm
same,manganese concentration that restored the growth of Listeria,[4]; CDM,above 0.006 ppm
same,time the inhibitory effect due to low manganese levels is maintained,[4]; low manganese levels in CDM,at least 20 hours
